Measured values taken from patent US9314510B2, “Human laminin α2 chain LG3 domain and active peptides promoting cell adhesion, spreading, migration, and neurite outgrowth” (SNU R&DB Foundation, priority 2011, dated 2016).
Ends that are not written are not given here.

Legend:
PC12 cells [1] = test: Cell spreading assay on coated plates (cell surface area); assay type: cell-based, rat; settings: 3 h, laminin 5 μg/mL, rLG proteins 25 μg/mL, peptides 62.5 μg/mL
Experimental: To determine cell spreading assays, the cells cultured on plates coated with each rLG domain protein for 1 h or 3 h in Experimental example <2-1> were fixed with 10% formalin. Then, the fixed cells were stained with 0.05% crystal violet for 1 h and plates were gently washed with PBS three times. The surface area of cells was measured with Image-Pro plus software (Version 4.5; Media Cybernetics, Silver Spring, Md.).
The present inventors compared the cellular activities of Ln2-LG3-P2 peptide to scrambled peptide (SEQ ID NO:20, NWEIRCIPGNPF) of Ln2-LG3-P2 peptide and Ln2-LG3-P1 peptide to Ln2-LG3-P5 peptide at a concentration of 62.5 μg/mL where the cell adhesion activity was the maximum. […] PC12 cells were cultured on plates which were coated in the same way for 3 h in serum-free medium and the cell spreading was observed.
Specifically, to observe cell adhesion, spreading, migration, and neurite outgrowth promotion, the methods described in Experimental examples <2-1> to <2-3> were used and PC12 cells were cultured on plates coated with laminin (5 μg/mL), rLG3 (25 μg/mL), and rLG3-M1 (25 μg/mL) and observed. To observe cell adhesion, PC12 cells were incubated on the coated plates for 1 h and to observe cell spreading, PC12 cells were incubated on the coated plates for 3 h. To observe cell migration, PC12 cells were incubated on the coated plates for […].
To measure cell adhesion, spreading, migration, and neurite outgrowth promotive activities of PC12 cells using the prepared synthetic peptides that are N- and C-terminal truncated or C-terminal added peptides of the Ln2-LG3-P2 peptide, peptides described in Table 1 were coated onto plates at 62.5 μg/mL and PC12 cells were seeded thereon.

PKCδ = test: Tyrosine phosphorylation of PKCδ (immunoprecipitation and Western blotting); assay type: cell-based, rat; settings: PC12 cells on coated dishes, 30 min
Experimental: PC12 cells were incubated on dishes coated with laminin, rLG3, or the Ln2-LG3-P2 peptide for 30 min and the interaction of PKCδ with phosphotyrosine was examined using immunoprecipitation and Western blotting.

FAK Tyr-397 = test: FAK phosphorylation by western blotting; assay type: cell-based, rat; settings: PC12 cells on coated dishes; 15, 30, 60 min
Experimental: For measuring FAK phosphorylation, specifically, PC12 cells were starved for 12 h by replacing RPMI 1640 medium with 0.1% FBS. PC12 cells (2×10^6 cells) were plated on 60-mm dishes precoated with laminin (5 μg/mL), rLG3 (25 μg/mL), or Ln2-LG3-P2 (25 μg/well), and allowed to adhere for the indicated times (15 min, 30 min, and 60 min). Cells were washed with ice-cold PBS and lysed with 200 μL of RIPA buffer (50 mM Tris-HCl, pH 7.4, 150 mM NaCl, 1 mM EDTA 1% Triton X-100, 1 mM PMSF, 2 mM Na3VO4, 1 mM glycerol phosphate) containing a protease inhibitor cocktail. RIPA lysates were denatured using SDS sample buffer (50 mM Tris/HCl, pH 6.8, 2% SDS, 10% glycerol, 0.1% bromophenol blue, 50 mM dithiothreitol) and analysed by SDS-PAGE. The separated proteins were electroblotted onto an Immobilon-P membrane (Millipore, Bedford, Mass.) and probed with primary antibodies to FAK Tyr-397 (Biosource, Camarillo, Calif.), FAK (Upstate Biotechnology Inc., Lake Placid, N.Y.). All blots were then detected with HRP-conjugated secondary antibodies (Cell Signaling). Signals were detected by ECL (iNtRON Biotechnology, Korea).

integrin β1 = biological target: T1, integrin β1 (Rattus norvegicus, UniProt P49134); test: Immunoprecipitation of PKCα, PKCδ and FAK with His6-rLG3 or integrin β1; assay type: cell-based; settings: PC12 cells on coated dishes, 30 min
T1 construct: whether PKCα and -δ exist as associated complexes in PC12 cells seeded on laminin-, rLG3-, and Ln2-LG3-P2-coated dishes; endogenous in cells; host or cells: PC12 cells
T1 sequence (P49134 21-799): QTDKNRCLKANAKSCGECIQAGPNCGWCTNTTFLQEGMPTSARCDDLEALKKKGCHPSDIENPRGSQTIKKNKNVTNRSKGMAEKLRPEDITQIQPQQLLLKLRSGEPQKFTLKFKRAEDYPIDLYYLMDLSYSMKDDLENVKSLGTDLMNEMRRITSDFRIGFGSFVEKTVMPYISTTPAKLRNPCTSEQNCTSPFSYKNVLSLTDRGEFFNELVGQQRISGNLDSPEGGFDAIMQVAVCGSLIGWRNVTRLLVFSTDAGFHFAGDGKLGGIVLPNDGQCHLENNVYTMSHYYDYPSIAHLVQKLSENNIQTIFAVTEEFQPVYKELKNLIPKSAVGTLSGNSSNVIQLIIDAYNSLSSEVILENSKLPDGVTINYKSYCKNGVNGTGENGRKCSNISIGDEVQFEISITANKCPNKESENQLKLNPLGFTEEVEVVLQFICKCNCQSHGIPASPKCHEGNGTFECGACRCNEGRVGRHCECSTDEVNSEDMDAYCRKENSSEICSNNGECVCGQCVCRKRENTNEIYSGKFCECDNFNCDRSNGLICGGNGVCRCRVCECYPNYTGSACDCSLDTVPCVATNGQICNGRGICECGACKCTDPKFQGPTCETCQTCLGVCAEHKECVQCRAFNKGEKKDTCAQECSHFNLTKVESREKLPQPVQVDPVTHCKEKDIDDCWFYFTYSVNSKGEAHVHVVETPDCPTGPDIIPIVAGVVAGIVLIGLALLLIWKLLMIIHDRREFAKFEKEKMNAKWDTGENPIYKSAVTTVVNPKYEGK
Experimental: Specifically, for immunoprecipitation, PC12 cells were starved for 12 h with RPMI 1640 medium containing 0.1% FBS. Cells were detached and resuspended in serum-free medium with 0.1% BSA. PC12 cells (4×10^6 cells/100-mm dish) were seeded on laminin (5 μg/mL)-, rLG3 (25 μg/mL)-, or Ln2-LG3-P2 (25 μg/well)-coated dishes and allowed to attach for 30 min at 37° C. After incubation, cells were washed with ice-cold PBS, lysed with RIPA buffer containing a protease inhibitor cocktail. The lysates were centrifuged and the supernatants were preincubated with 50 μL of immobilized protein G beads (Upstate Biotechnology Inc.) for 1 h at 4° C. to remove nonspecific binding. The supernatants were incubated with anti-His6 (Roche, Mannheim, Germany), anti-integrin (Santa Cruz Biotechnology), or anti-PKCδ (Santa Cruz Biotechnology) antibodies for 2 h at 4° C. The immunocomplexes were precipitated with immobilized protein G beads for 12 h at 4° C. After centrifugation, beads carrying the immune complexes were washed four times with RIPA buffer. Immunoprecipitates were resuspended in SDS sample buffer, boiled for 5 min, and analysed by Western blotting.

PC12 cells [2] = test: Immunostaining of actin stress fibers and focal adhesions; assay type: cell-based, rat; settings: PC12 cells on coated chamber slides, 3 h, serum-free
Experimental: Specifically, for immunostaining, PC12 cells were incubated on Lab-Tek chamber slides (Nalge Nunc International, Rochester, N.Y.) coated with laminin (5 μg/mL), rLG domain proteins (25 μg/mL), or Scrambled peptide (SP) (25 μg/well) in serum-free medium for 3 h at 37° C. Lab-Tek chamber slides were coated with BSA for the control. After rinsing with PBS, PC12 cells were fixed with 3.7% formalin for 20 min and permeabilized with 0.5% Triton X-100 for 5 min. PC12 cells were incubated with primary antibodies for 12 h at 4° C. The primary antibodies used were 1:500 anti-vinculin (Sigma-Aldrich 9131), or 1:300 rhodamin-phalloidin (Invitrogen R154) antibodies. After rinsing with PBS, PC12 cells were immunostained with FITC-conjugated anti-mouse IgG antibody (Jackson ImmunoResearch Laboratories, West Grove, Pa.) or rhodamin-conjugated anti-mouse IgG antibody (Santa Cruz Biotechnology) for 1 h at room temperature. After being washed three times with PBS, the stained PC12 cells were mounted and photographed using a confocal laser scanning microscope (FV300; Olympus, Japan).

| Molecule | cell spreading (PC12 cells [1]) | tyrosine phosphorylation of PKCδ (PKCδ) | time at which FAK phosphorylation levels at Tyr-397 peaked (FAK Tyr-397) [min] | proteins in integrin β1 immunoprecipitates (integrin β1) | actin stress fiber formation and focal adhesions (PC12 cells [2]) | cell spreading (immunostaining) (PC12 cells [2]) | proteins in anti-His6 immunoprecipitates (integrin β1) |
| --- | --- | --- | --- | --- | --- | --- | --- |
| laminin [reference compound] | promoted cell spreading | increased | 15 | PKCα, PKCδ, and FAK were also observed | formed actin stress fibers and focal adhesions | spread very well | – |
| RNIPPFEGCIWN (RNIPPFEGCIWN-NH2; listed as Homo sapiens) [Ln2-LG3-P2, 12-mer peptide, position 2675 to 2686 in human laminin α2 chain] | comparable to that of rLG3 | increased | 15 | PKCα, PKCδ, and FAK were also observed | formed stress fiber formation, and focal adhesions but to a lesser degree than those on laminin | spread well | – |
| rLG3: recombinant His6-tagged human laminin α2 chain LG3 domain, amino acids 2537 to 2745 (protein, listed as Homo sapiens, His6 tag) VELSPVPIDVGTEINLSFSTKNESGIILLGSGGTPAPPRRKRRQTGQAYYVILLNRGRLEVHLSTGARTMRKIVIRPEPNLFHDGREHSVHVERTRGIFTVQVDENRRYMQNLTVEQPIEVKKLFVGGAPPEFQPSPLRNIPPFEGCIWNLVINSVPMDFARPVSFKNADIGRCAHQKLREDEDGAAPAEIVIQPEPVPTPAFPTPTPV | induced cell spreading | increased | 15 | PKCα, PKCδ, and FAK were also observed | formed stress fiber formation, and focal adhesions but to a lesser degree than those on laminin | spread well | PKCα, PKCδ, and FAK were observed |
